Experimental data taken from patent publication US10919859B2, “Benzylaminopyridylcyclopropanecarboxylic acids, pharmaceutical compositions and uses thereof” (Boehringer Ingelheim International GmbH, priority 2017, dated 2021).
≈ marks a conversion by molar mass, not a printed value.

Key:
human GPR40 receptor = human GPR40 receptor (Homo sapiens (Human), UniProt O14842); assay: IP1 accumulation measurements using the IPOne assay system; type: cell-based; conditions: 1321N1 cells stably expressing human GPR40, 1 h at 37° C.
Experimental: IP1 accumulation measurements using the IPOne assay system—1321N1 cells stably expressing human GPR40 receptor (Euroscreen, Belgium) are seeded 24 h before the assay in white 384-well plates in culture medium containing 10% FCS, 1% Na-Pyruvate and 400 μg/mL G418. IP1 is assayed according to the manufacturer's description (Cisbio Bioassays, France). In brief, the assay is started by substitution of the culture medium by stimulation buffer (Hepes 10 mM, CaCl2 1 mM, MgCl2 0.5 mM, KCl 4.2 mM, NaCl 146 mM, glucose 5.5 mM and LiCl 50 mM, pH 7.4). Cells are stimulated for 1 h at 37° C., 5% CO2 by addition of the compounds that are diluted in stimulation buffer containing LiCl. Assays are stopped by adding HTRF-conjugates (IP1-d2 and Anti-IP1 cryptate Tb) and lysis buffer, provided by the manufacturer. After an incubation time of 1 h at room temperature plates are measured using an EnVision™, Perkin Elmer. The obtained fluorescence ratios at 665/615 […] are then used to calculate the pEC50 values using Assay Explorer 3.3 Software (Accelrys, Inc.) by interpolation using an IP1 reference curve and subsequent sigmoidal curve fitting allowing for a variable hill slope.

[1] = Aqueous solubility (buffer vs acetonitrile/water, LC-UV); type: physicochemical; conditions: for solubility at 24 h: aqueous buffer, kinetic from dmso stock
Experimental: The aqueous solubility of the compounds of the invention is determined by comparing the amount dissolved in buffer to the amount in an acetonitrile/water (1/1) solution. Starting from a 10 mM DMSO stock solution aliquots are diluted with acetonitrile/water (1/1) or buffer, respectively. After 24 h of shaking, the solutions are filtrated and analyzed by LC-UV. The amount dissolved in buffer is compared to the amount in the acetonitrile solution.

[2] = pH 2.2 buffer, 24 h shaking, 2.5% DMSO, examples in this invention

Sequence of human GPR40 receptor (O14842 whole entry): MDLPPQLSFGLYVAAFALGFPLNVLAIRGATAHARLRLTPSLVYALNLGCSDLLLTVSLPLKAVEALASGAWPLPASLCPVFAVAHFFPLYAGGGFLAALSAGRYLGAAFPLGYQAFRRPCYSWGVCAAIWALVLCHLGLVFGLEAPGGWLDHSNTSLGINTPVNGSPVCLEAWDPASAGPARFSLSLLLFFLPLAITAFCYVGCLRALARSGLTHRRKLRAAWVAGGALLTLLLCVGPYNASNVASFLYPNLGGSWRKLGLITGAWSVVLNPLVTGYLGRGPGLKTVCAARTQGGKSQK

Row | SMILES | EC50 (human GPR40 receptor) [nM] | solubility at 24 h [1, 2] [µg/mL] | Solubility at pH value 2.2 ([1]; pH 2.2) [μg/mL] | Solubility at pH value 2.2 [1, 2] [μg/mL]
1 | COc1c(F)cc(-c2cc(CNc3ccc([C@H]4C[C@@H]4C(=O)O)nc3)c(F)cc2F)cc1F [Example 10, (1S,2S)-2-{5-[(4,6,3′,5′-Tetrafluoro-4′-methoxy-biphenyl-3-ylmethyl)-amino]-pyridin-2-yl}-cyclopropanecarboxylic acid] | 52 | 61 (≈ 137 µM) |  | 
2 | Cc1cc(-c2nnn(C)n2)cc(C)c1-c1ccc(F)c(CNc2ccc([C@H]3C[C@@H]3C(=O)O)nc2)c1 [Example 11] | 8 |  | 56 | 
3 | CC(C)(O)CCOc1ccc(-c2cc(CNc3ccc([C@H]4C[C@@H]4C(=O)O)nc3)ccc2C(F)(F)F)cc1 [Example 2, (1S,2S)-2-(5-{[4′-(3-Hydroxy-3-methyl-butoxy)-6-trifluoromethyl-biphenyl-3-ylmethyl]-amino}-pyridin-2-yl)-cyclopropanecarboxylic acid] | 17 | 72 (≈ 140 µM) |  | 
4 | COc1cc(OC)c(-c2ccc(F)c(CNc3ccc([C@H]4C[C@@H]4C(=O)O)nc3)c2)c(OC)c1 [Example 31] | 453 |  | 88 | 
5 | N#Cc1cccc(C#N)c1-c1ccc(F)c(CNc2ccc([C@H]3C[C@@H]3C(=O)O)nc2)c1 [Example 38] | > 10000 |  | >83 | 
6 | Cc1cc(-c2ccnn2C)cc(C)c1-c1ccc(F)c(CNc2ccc([C@H]3C[C@@H]3C(=O)O)nc2)c1 [Example 55] | 12 |  | 53 | 
7 | Cc1cc(C(N)=O)cc(C)c1-c1ccc(F)c(CNc2ccc([C@H]3C[C@@H]3C(=O)O)nc2)c1 [Example 27] | 401 |  | 62 | 
8 | O=C(O)[C@H]1C[C@@H]1c1ccc(NCc2cc(-c3c(F)cccc3F)ccc2F)cn1 [Example 39] | 435 |  | 46 | 
9 | Cc1cc(OCc2ccccc2)cc(C)c1-c1ccc(F)c(CNc2ccc([C@H]3C[C@@H]3C(=O)O)nc2)c1 [Example 12] | 44 |  | 27 | 
10 | Cc1cc(OCC2CCOC2)cc(C)c1-c1ccc(F)c(CNc2ccc([C@H]3C[C@@H]3C(=O)O)nc2)c1 (stereo partly shown) [Example 26] | 39 |  | 70 | 
11 | Cc1cc(OC2CCOCC2)cc(C)c1-c1ccc(F)c(CNc2ccc([C@H]3C[C@@H]3C(=O)O)nc2)c1 [Example 20] | 35 |  | 66 | 
12 | Cc1cc(OCC(=O)O)cc(C)c1-c1ccc(F)c(CNc2ccc([C@H]3C[C@@H]3C(=O)O)nc2)c1 [Example 14] | 4520 |  | 71 | 
13 | O=C(O)[C@H]1C[C@@H]1c1ccc(NCc2cc(-c3c(F)cc(OC4CC4)cc3F)ccc2F)cn1 [Example 33] | 297 |  | 53 | 
14 | Cc1cc(CO)cc(C)c1-c1ccc(F)c(CNc2ccc([C@H]3C[C@@H]3C(=O)O)nc2)c1 [Example 22] | 206 |  | 48 | 
15 | CC(C)c1ccccc1-c1ccc(F)c(CNc2ccc([C@H]3C[C@@H]3C(=O)O)nc2)c1 [Example 50] | 81 |  |  | 48
16 | COc1cc(OC)c(F)c(-c2ccc(F)c(CNc3ccc([C@H]4C[C@@H]4C(=O)O)nc3)c2)c1F [Example 52] | 836 |  | 62 | 
17 | Cc1cc(C(=O)O)cc(C)c1-c1ccc(F)c(CNc2ccc([C@H]3C[C@@H]3C(=O)O)nc2)c1 [Example 45] | 3660 |  | 69 | 
18 | Cc1cc(OCCC(C)(C)O)cc(C)c1-c1ccc(F)c(CNc2ccc([C@H]3C[C@@H]3C(=O)O)nc2)c1 [Example 19] | 27 |  | 81 | 
19 | Cc1cc(-c2nnn(CC(C)(C)O)n2)cc(C)c1-c1ccc(F)c(CNc2ccc([C@H]3C[C@@H]3C(=O)O)nc2)c1 [Example 54] | 10 |  | 81 | 
20 | Cc1cc(O[C@@H]2CCOC2)cc(C)c1-c1ccc(F)c(CNc2ccc([C@H]3C[C@@H]3C(=O)O)nc2)c1 [Example 24] | 44 |  | 64 | 
